{"source": "patent US8227205B2", "about": "(priority 2007, dated 2012)", "assay_type_in_all_cases": "cell-based", "key": {"HeLa cells": {"test_system": "HeLa cells", "assay": "CytoTox-Glo dual measurement of cell viability and cytotoxicity (dead cell luminescence, then digitonin lysis, subtractive live cell signal)", "details": "HeLa cells, 10,000 cells/well, 24 hours, FIG. 11B/11C", "procedure": "In FIG. 11B, HeLa cells were seeded at a 10,000 cells/well in DMEM+10% FBS in 50 μl volumes and incubated overnight at 37° C. in 5% CO2. Nocodazole was two-fold serially diluted in DMEM+10% FBS in a separate plate from 2 μM and added in 50 μL it volumes (highest final dosage is 1,000 nM). The cells were allowed to incubate with the compound for 24 hours. CytoTox-Glo Reagent was prepared as above and added to each well in an equal volume (100 μL). After 15 minutes of incubation, the dead cell signal was collected. Digitonin (20 mg/mL in DMSO) was diluted in CytoTox-Glo buffer and added in 20 μL volumes to each well to facilitate complete cell lysis. Luminescence was measured after 15 minutes of incubation at room temperature.\nThe luminescent signal collected after lysis was adjusted to reflect the “live cell” contribution by subtracting the initial dead cell signal. The data were plotted as the non-viable and viable signals versus the concentration of nocodazole.\nIn FIG. 11C, HeLa cells were seeded at a 10,000 cells/well in DMEM+10% FBS in 50 μL volumes and incubated overnight at 37° C. in 5% CO2. Colchicine was two-fold serially diluted in DMEM+10% FBS in a separate plate from 1,000 nM and added in 50 μL volumes (highest final dosage was 500 nM). The cells were allowed to incubate with the compound for 24 hours. […] Luminescence was measured after 15 minutes of incubation at room temperature. […]"}, "Jurkat cells": {"test_system": "Jurkat cells", "assay": "CytoTox-Glo live and dead cell luminescence assay", "details": "Jurkat cells, 10,000 cells/well, 6 hours, FIG. 5/FIG. 7", "procedure": "Ionomycin (a calcium ionophore which affects calcium flux across cell membranes, and therefore a model necrosis inducing agent at high concentrations) was two fold serially diluted from 100 μM in RPMI 1640+10% FBS in 50 μL volumes. Jurkat cells were added to 10,000 cells/well in a 50 μL volume. The plate was shaken briefly using an orbital shaker and then incubated for 6 hours at 37° C. CytoTox-Glo Reagent was prepared as above and added to each well in a equal volume (100 μL) per well. The plate was incubated at room temperature for 15 minutes and the dead cell signal measured using a BMG PolarStar. Digitonin (20 mg/mL in DMSO) was diluted to 300 μg/mL in CytoTox-Glo buffer and added in 20 μL volumes per well to facilitate complete cellular lysis. Luminescence was measured after 15 minutes of incubation at room temperature.\nThe luminescent signal collected after lysis was adjusted to reflect the “live cell” contribution by subtracting the initial dead cell signal. […]\nStaurosporine (multiple mechanism apoptosis inducer) was two fold serially diluted from 20 μM in RPMI 1640+10% FBS in a microwell plate in 50 μL, volumes. […] The plate was incubated at room temperature for 15 minutes and the dead cell signal measured using a BMG PolarStar. […] Luminescence was measured after 15 minutes of incubation at room temperature. […]"}, "K562cells": {"test_system": "K562cells", "assay": "CytoTox-Glo dual measurement of cell viability and cytotoxicity (dead cell luminescence, then digitonin lysis, subtractive live cell signal)", "details": "K562 cells, 5,000 cells/well, 24 hours, two-fold serial dilution from 10 μM, FIG. 11A", "procedure": "(§1) Campothecin was two-fold serially-diluted in RPMI 1640+10% FBS medium from 10 μM and added in 50 μL volumes. The cells were incubated at 37° C., 5% CO2 for 24 hours. CytoTox-Glo reagent was prepared as described above and added to each well in an equal volume (100 μL). After 15 minutes of incubation, the dead cell signal was measured. Digitonin (20 mg/mL in DMSO) was diluted in CytoTox-Glo buffer and added in 20 μL volumes to each well to facilitate complete cell lysis. Luminescence was measured after 15 minutes of incubation at room temperature.\nThe luminescent signal collected after lysis was adjusted to reflect the “live cell” contribution by subtracting the initial dead cell signal. The data were plotted as the non-viable and viable signals versus the concentration of campothecin (FIG. 11A). […] If only viability was measured, one might conclude that the compound was substantially cytotoxic. If only cytotoxicity was measured, one might conclude that the compound was not very potent. Either interpretation would be faulty."}, "DU-145 cells": {"test_system": "DU-145 cells", "assay": "CytoTox-Glo live and dead cell luminescence assay", "details": "DU-145 cells, 5,000 cells/well, 48 hours, FIG. 10A", "procedure": "as §1, with “DU-145 cells were seeded at a density of 5,000 cells/well in 50 μL of MEM+10% FBS and allowed to attach overnight. Epoxomicin (a proteasome inhibitor)” for “Campothecin”, “serially diluted from 5 μM” for “two-fold serially-diluted”, “MEM+10%” for “RPMI 1640+10%”, “FBS” for “FBS medium from 10 μM”, “with the compound” for “at 37° C., 5% CO2”, “48” for “24”\nThe luminescent signal collected after lysis was adjusted to reflect the “live cell” contribution by subtracting the initial dead cell signal. The data were plotted as the non-viable and viable signals versus the concentration of epoxomicin (FIG. 10A). […] The data also represents yet another toxin and mechanistic form of cell death."}}}
{"smiles": "COC(=O)Nc1nc2ccc(C(=O)c3cccs3)cc2[nH]1", "note": "[nocodazole, Nocodazole]", "values": [{"measurement": "non-viable and viable signals versus the concentration of compound (viability and cytotoxicity)", "setting": "HeLa cells", "value": "viability and cytotoxicity are ratiometric"}]}
{"smiles": "C[C@H](CCC(=O)O)C[C@H](C)C[C@H](C)C(=O)/C=C(\\O)[C@H](C)C[C@H](C)C/C=C/[C@@H](C)[C@@H](O)[C@@H](C)[C@@H](O)C[C@@H]1CC[C@@](C)([C@H]2CC[C@@](C)([C@@H](C)O)O2)O1", "note": "[ionomycin, Ionomycin]", "values": [{"measurement": "dead and live cell signals versus the concentration of compound", "setting": "Jurkat cells", "value": "live and dead cells were inversely complimentary"}]}
{"smiles": "CN[C@@H]1C[C@H]2O[C@@](C)([C@@H]1OC)n1c3ccccc3c3c4c(c5c6ccccc6n2c5c31)C(=O)NC4", "note": "[Staurosporine]", "values": [{"measurement": "dead and live cell signals versus the concentration of compound", "setting": "Jurkat cells", "value": "live and dead cells were inversely complimentary"}]}
{"smiles": "COc1cc2c(c(OC)c1OC)-c1ccc(OC)c(=O)cc1[C@@H](NC(C)=O)CC2", "note": "[colchicine, Colchicine]", "values": [{"measurement": "non-viable and viable signals versus the concentration of compound (viability and cytotoxicity)", "setting": "HeLa cells", "value": "viability is reduced because of the cytotoxicity of the compound"}]}
{"smiles": "CC[C@@]1(O)C(=O)OCc2c1cc1n(c2=O)Cc2cc3ccccc3nc2-1", "note": "[campothecin, Campothecin]", "values": [{"measurement": "non-viable and viable signals versus the concentration of compound (viability and cytotoxicity)", "setting": "K562cells", "value": "early cytotoxicity because of cell-cycle arrest"}]}
{"smiles": "CC[C@H](C)[C@H](NC(=O)[C@H]([C@@H](C)CC)N(C)C(C)=O)C(=O)N[C@H](C(=O)N[C@@H](CC(C)C)C(=O)[C@@]1(C)CO1)[C@@H](C)O", "note": "[epoxomicin, Epoxomicin]", "values": [{"measurement": "non-viable and viable signals versus the concentration of compound", "setting": "DU-145 cells", "value": "viable and non-viable cells were inversely complimentary"}]}
